Measurements reported in ChEMBL document CHEMBL3046616, “Design, synthesis, and biological activities of milbemycin analogues” (2011).

Columns and labels:
Format in all cases: functional
Tetranychus cinnabarinus = test: Insecticidal activity against Tetranychus cinnabarinus (carmine spider mite) […] assessed as larvicidal activity at 0.006 mg/L after 48 hr
Mythimna separata = test: Insecticidal activity against Mythimna separata (Oriental armyworm) fourth-instar larvae reared compound pre-treated corn leaves assessed as insect mortality at 200 mg/L measured 2 days post compound dose
Aphis fabae = test: Insecticidal activity against Aphis fabae (black bean aphid) infested soybean tender shoots measured 48 hr post compound dose by modified FAO dip method; set-up: concentration or dose not given beside the values

Structure (SMILES)	mortality at 0.006 µg/mL (Tetranychus cinnabarinus) [%]	mortality at 200 µg/mL (Mythimna separata) [%]	mortality (Aphis fabae) [%]
CCC(C)[C@H]1O[C@]2(CC[C@@H]1C)C[C@@H]1C[C@@H](C/C=C(\C)[C@@H](OC(=O)CC(C)(C)C)[C@@H](C)/C=C/C=C3\CO[C@@H]4[C@H](O)C(C)=C[C@@H](C(=O)O1)[C@]34O)O2 (some centres not stated)	35.5	88.9	76.5
C/C=C/C(=O)O[C@H]1[C@H](C)O[C@@H](O[C@@H]2/C(C)=C/C[C@@H]3C[C@@H](C[C@]4(CC[C@H](C)[C@@H](C(C)CC)O4)O3)OC(=O)[C@@H]3C=C(C)[C@@H](O)[C@H]4OC/C(=C\C=C\[C@@H]2C)[C@]43O)C[C@@H]1OC (some centres not stated)	25.1	88.9	100
CCC(C)[C@H]1O[C@]2(CC[C@@H]1C)C[C@@H]1C[C@@H](C/C=C(\C)[C@@H](OC(=O)c3ccc(OC)cc3)[C@@H](C)/C=C/C=C3\CO[C@@H]4/C(=N/OC)C(C)=C[C@@H](C(=O)O1)[C@]34O)O2 (some centres not stated)	5.9	0	6.3
CCC(C)[C@H]1O[C@]2(CC[C@@H]1C)C[C@@H]1C[C@@H](C/C=C(\C)[C@@H](OC(=O)Cc3ccccc3)[C@@H](C)/C=C/C=C3\CO[C@@H]4[C@H](O)C(C)=C[C@@H](C(=O)O1)[C@]34O)O2 (some centres not stated)	44.9	89.9	62.7
CCC(C)[C@H]1O[C@]2(CC[C@@H]1C)C[C@@H]1C[C@@H](C/C=C(\C)[C@@H](O[C@H]3C[C@H](OC)[C@@H](OC(=O)Nc4ccccc4)[C@H](C)O3)[C@@H](C)/C=C/C=C3\CO[C@@H]4[C@H](O)C(C)=C[C@@H](C(=O)O1)[C@]34O)O2 (some centres not stated)	45.2	100	97.6
CCC(C)[C@H]1O[C@]2(CC[C@@H]1C)C[C@@H]1C[C@@H](C/C=C(\C)[C@@H](O[C@H]3C[C@H](OC)[C@@H](OC(=O)Nc4ccc(Cl)cc4)[C@H](C)O3)[C@@H](C)/C=C/C=C3\CO[C@@H]4[C@H](O)C(C)=C[C@@H](C(=O)O1)[C@]34O)O2 (some centres not stated)	29.8	77.9	90.3
CCC(C)[C@H]1O[C@]2(CC[C@@H]1C)C[C@@H]1C[C@@H](C/C=C(\C)[C@@H](OC(=O)/C(=N\OC)c3ccccc3)[C@@H](C)/C=C/C=C3\CO[C@@H]4/C(=N/OC)C(C)=C[C@@H](C(=O)O1)[C@]34O)O2 (some centres not stated)	49	0	6.5
CCC(C)[C@H]1O[C@]2(CC[C@@H]1C)C[C@@H]1C[C@@H](C/C=C(\C)[C@@H](OC(=O)Nc3ccccc3)[C@@H](C)/C=C/C=C3\CO[C@@H]4[C@H](O)C(C)=C[C@@H](C(=O)O1)[C@]34O)O2 (some centres not stated)	55.2	100	96.8
CCC(C)[C@H]1O[C@]2(CC[C@@H]1C)C[C@@H]1C[C@@H](C/C=C(\C)[C@@H](OC(=O)/C(=N\OC)c3ccccc3)[C@@H](C)/C=C/C=C3\CO[C@@H]4[C@H](O)C(C)=C[C@@H](C(=O)O1)[C@]34O)O2 (some centres not stated)	41.5	75.5	86.3
CCC(C)[C@H]1O[C@]2(CC[C@@H]1C)C[C@@H]1C[C@@H](C/C=C(\C)[C@@H](O[C@H]3C[C@H](OC)[C@@H](OC(=O)c4ccc(Cl)cc4)[C@H](C)O3)[C@@H](C)/C=C/C=C3\CO[C@@H]4/C(=N/OC)C(C)=C[C@@H](C(=O)O1)[C@]34O)O2 (some centres not stated)	6.2	0	8.7
CCC(C)[C@H]1O[C@]2(CC[C@@H]1C)C[C@@H]1C[C@@H](C/C=C(\C)[C@@H](O[C@H]3C[C@H](OC)[C@@H](OC(=O)c4cc(F)c(Cl)nc4Cl)[C@H](C)O3)[C@@H](C)/C=C/C=C3\CO[C@@H]4[C@H](O)C(C)=C[C@@H](C(=O)O1)[C@]34O)O2 (some centres not stated)	16.5	0	88.2
CCC(C)[C@H]1O[C@]2(CC[C@@H]1C)C[C@@H]1C[C@@H](C/C=C(\C)[C@@H](O[C@H]3C[C@H](OC)[C@@H](OC(=O)C4C(C=C(Cl)Cl)C4(C)C)[C@H](C)O3)[C@@H](C)/C=C/C=C3\CO[C@@H]4[C@H](O)C(C)=C[C@@H](C(=O)O1)[C@]34O)O2 (some centres not stated)	11.8	87.2	92.3
CCC(C)[C@H]1O[C@]2(CC[C@@H]1C)C[C@@H]1C[C@@H](C/C=C(\C)[C@@H](OC(=O)c3ccc(F)cc3)[C@@H](C)/C=C/C=C3\CO[C@@H]4[C@H](O)C(C)=C[C@@H](C(=O)O1)[C@]34O)O2 (some centres not stated)	47.4	83.3	56.8
CCC(C)[C@H]1O[C@]2(CC[C@@H]1C)C[C@@H]1C[C@@H](C/C=C(\C)[C@@H](O[C@H]3C[C@H](OC)[C@@H](OC(=O)/C(=N\OC)c4ccccc4)[C@H](C)O3)[C@@H](C)/C=C/C=C3\CO[C@@H]4/C(=N/OC)C(C)=C[C@@H](C(=O)O1)[C@]34O)O2 (some centres not stated)	36.6	0	15.9
CCC(C)[C@H]1O[C@]2(CC[C@@H]1C)C[C@@H]1C[C@@H](C/C=C(\C)[C@@H](OC(=O)c3ccccc3)[C@@H](C)/C=C/C=C3\CO[C@@H]4/C(=N/OC)C(C)=C[C@@H](C(=O)O1)[C@]34O)O2 (some centres not stated)	9.2	0	7.2
CCC(C)[C@H]1O[C@]2(CC[C@@H]1C)C[C@@H]1C[C@@H](C/C=C(\C)[C@@H](O[C@H]3C[C@H](OC)[C@@H](OC(=O)c4ccccc4)[C@H](C)O3)[C@@H](C)/C=C/C=C3\CO[C@@H]4/C(=N/OC)C(C)=C[C@@H](C(=O)O1)[C@]34O)O2 (some centres not stated)	8.6	0	5.9
CCC(C)[C@H]1O[C@]2(CC[C@@H]1C)C[C@@H]1C[C@@H](C/C=C(\C)[C@@H](OC(=O)c3ccc(Cl)cc3)[C@@H](C)/C=C/C=C3\CO[C@@H]4/C(=N/OC)C(C)=C[C@@H](C(=O)O1)[C@]34O)O2 (some centres not stated)	10.2	0	0
CCC(C)[C@H]1O[C@]2(CC[C@@H]1C)C[C@@H]1C[C@@H](C/C=C(\C)[C@@H](O[C@H]3C[C@H](OC)[C@@H](OC(=O)C4C(C=C(Br)Br)C4(C)C)[C@H](C)O3)[C@@H](C)/C=C/C=C3\CO[C@@H]4[C@H](O)C(C)=C[C@@H](C(=O)O1)[C@]34O)O2 (some centres not stated)	13.4	83.3	100
CCC(C)[C@H]1O[C@]2(CC[C@@H]1C)C[C@@H]1C[C@@H](C/C=C(\C)[C@@H](OC(=O)C3C(C=C(Br)Br)C3(C)C)[C@@H](C)/C=C/C=C3\CO[C@@H]4[C@H](O)C(C)=C[C@@H](C(=O)O1)[C@]34O)O2 (some centres not stated)	32.1	100	72.9
C/C=C\C(=O)O[C@@H]1/C(C)=C/C[C@@H]2C[C@@H](C[C@]3(CC[C@H](C)[C@@H](C(C)CC)O3)O2)OC(=O)[C@@H]2C=C(C)[C@@H](O)[C@H]3OC/C(=C\C=C\[C@@H]1C)[C@]32O (some centres not stated)	40.9	76.8	73.5
CCC(C)[C@H]1O[C@]2(CC[C@@H]1C)C[C@@H]1C[C@@H](C/C=C(\C)[C@@H](OC(=O)c3ccc(F)cc3)[C@@H](C)/C=C/C=C3\CO[C@@H]4/C(=N/OC)C(C)=C[C@@H](C(=O)O1)[C@]34O)O2 (some centres not stated)	19.8	0	0
CCC(C)[C@H]1O[C@]2(CC[C@@H]1C)C[C@@H]1C[C@@H](C/C=C(\C)[C@@H](O[C@H]3C[C@H](OC)[C@@H](OC(=O)c4ccc(C)cc4)[C@H](C)O3)[C@@H](C)/C=C/C=C3\CO[C@@H]4[C@H](O)C(C)=C[C@@H](C(=O)O1)[C@]34O)O2 (some centres not stated)	4.5	89.7	92.5
CCC(C)[C@H]1O[C@]2(CC[C@@H]1C)C[C@@H]1C[C@@H](C/C=C(\C)[C@@H](OC(=O)c3ccc(C)cc3)[C@@H](C)/C=C/C=C3\CO[C@@H]4[C@H](O)C(C)=C[C@@H](C(=O)O1)[C@]34O)O2 (some centres not stated)	27.1	87.6	56.4
CCC(C)[C@H]1O[C@]2(CC[C@@H]1C)C[C@@H]1C[C@@H](C/C=C(\C)[C@@H](OC(=O)Nc3ccc(Cl)cc3)[C@@H](C)/C=C/C=C3\CO[C@@H]4[C@H](O)C(C)=C[C@@H](C(=O)O1)[C@]34O)O2 (some centres not stated)	30.8	88.5	67.8
CCC(C)[C@H]1O[C@]2(CC[C@@H]1C)C[C@@H]1C[C@@H](C/C=C(\C)[C@@H](OC(=O)c3ccc(OC)cc3)[C@@H](C)/C=C/C=C3\CO[C@@H]4[C@H](O)C(C)=C[C@@H](C(=O)O1)[C@]34O)O2 (some centres not stated)	34.8	100	75.2
CCC(C)[C@H]1O[C@]2(CC[C@@H]1C)C[C@@H]1C[C@@H](C/C=C(\C)[C@@H](O[C@H]3C[C@H](OC)[C@@H](OC(=O)c4ccccc4OC)[C@H](C)O3)[C@@H](C)/C=C/C=C3\CO[C@@H]4[C@H](O)C(C)=C[C@@H](C(=O)O1)[C@]34O)O2 (some centres not stated)	16.4	98.2	100
CCC(C)[C@H]1O[C@]2(CC[C@@H]1C)C[C@@H]1C[C@@H](C/C=C(\C)[C@@H](O[C@H]3C[C@H](OC)[C@@H](OC(=O)c4ccc(OC)cc4)[C@H](C)O3)[C@@H](C)/C=C/C=C3\CO[C@@H]4/C(=N/OC)C(C)=C[C@@H](C(=O)O1)[C@]34O)O2 (some centres not stated)	6.8	0	9.3
CCC(C)[C@H]1O[C@]2(CC[C@@H]1C)C[C@@H]1C[C@@H](C/C=C(\C)[C@@H](O[C@H]3C[C@H](OC)[C@@H](OC(=O)c4ccc(OC)cc4)[C@H](C)O3)[C@@H](C)/C=C/C=C3\CO[C@@H]4[C@H](O)C(C)=C[C@@H](C(=O)O1)[C@]34O)O2 (some centres not stated)	9.7	100	92.3
CCC(C)[C@H]1O[C@]2(CC[C@@H]1C)C[C@@H]1C[C@@H](C/C=C(\C)[C@@H](OC(=O)c3ccccc3)[C@@H](C)/C=C/C=C3\CO[C@@H]4[C@H](O)C(C)=C[C@@H](C(=O)O1)[C@]34O)O2 (some centres not stated)	31.1	88.6	76.5
